Article PMC7044277 (Nature Communications, 2020)
Values joined by “and” are separate entries in the source; they are usually repeats but may differ in a detail not shown here. Equal entries are not always repeated.

How the values were obtained:
Format in all cases: cell-based
Design in all cases: GPCRome screening signal at PTGIR / GPCRome screening signal at PTH1R / GPCRome screening signal at PTH2R / GPCRome screening signal at QRFP / GPCRome screening signal at RXFP2 / GPCRome screening signal at RXFP3 / GPCRome screening signal at RXFP4 / GPCRome screening signal at S1PR2 / GPCRome screening signal at S1PR3 / GPCRome screening signal at S1PR4 / GPCRome screening signal at S1PR5 / GPCRome screening signal at SCTR / GPCRome screening signal at SSTR2 / GPCRome screening signal at SSSTR / GPCRome screening signal at SSTR4 / GPCRome screening signal at SSTR5 / GPCRome screening signal at SUCNR1 / GPCRome screening signal at TA1 / GPCRome screening signal at TAAR2 / GPCRome screening signal at TAAR5 / GPCRome screening signal at TAAR6 / GPCRome screening signal at TAAR8 / GPCRome screening signal at TACR1 / GPCRome screening signal at TACR2 / GPCRome screening signal at TACR3 / GPCRome screening signal at TBXA2R / GPCRome screening signal at TSHR / GPCRome screening signal at UTS2R / GPCRome screening signal at VIPR2 / GPCRome screening signal at GPR68 no V2 Tail / GPCRome screening signal at GRM2 / GPCRome screening signal at GRM3: reference not given here
[1] = molecular target: T1, 320 non-olfactory GPCRs (Homo sapiens, UniProt O14804); settings: receptor TAAR5
T1 construct: expressed in transfected cells; host or cells: HTLA cells

[2] = molecular target: T2, 320 non-olfactory GPCRs (Homo sapiens, UniProt Q14832); settings: receptor GRM3
T2 construct: expressed in transfected cells; host or cells: HTLA cells

[3] = molecular target: 320 non-olfactory GPCRs (Homo sapiens, UniProt Q9H228); settings: receptor S1PR5
[4] = molecular target: T3, 320 non-olfactory GPCRs (Homo sapiens, UniProt P21731); settings: receptor TBXA2R
T3 construct: expressed in transfected cells; host or cells: HTLA cells

[5] = Fig_5f, single replicate values
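Wherever GPCRome agonism screen response is given: fold over basal response of each receptor without drug.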

Chain of 320 non-olfactory GPCRs (Homo sapiens, UniProt Q9H228) (Q9H228 whole entry): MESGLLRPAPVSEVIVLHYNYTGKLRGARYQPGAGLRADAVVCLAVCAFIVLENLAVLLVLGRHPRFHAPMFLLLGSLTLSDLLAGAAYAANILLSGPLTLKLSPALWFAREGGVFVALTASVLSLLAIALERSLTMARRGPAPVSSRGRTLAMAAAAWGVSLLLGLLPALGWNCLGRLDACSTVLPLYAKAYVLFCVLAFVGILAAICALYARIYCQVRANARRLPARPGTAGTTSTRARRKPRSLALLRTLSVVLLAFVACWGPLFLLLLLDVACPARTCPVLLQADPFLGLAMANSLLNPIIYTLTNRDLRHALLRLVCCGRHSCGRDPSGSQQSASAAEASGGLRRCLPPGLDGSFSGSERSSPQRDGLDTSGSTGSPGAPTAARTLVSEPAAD
T3 sequence (P21731 whole entry): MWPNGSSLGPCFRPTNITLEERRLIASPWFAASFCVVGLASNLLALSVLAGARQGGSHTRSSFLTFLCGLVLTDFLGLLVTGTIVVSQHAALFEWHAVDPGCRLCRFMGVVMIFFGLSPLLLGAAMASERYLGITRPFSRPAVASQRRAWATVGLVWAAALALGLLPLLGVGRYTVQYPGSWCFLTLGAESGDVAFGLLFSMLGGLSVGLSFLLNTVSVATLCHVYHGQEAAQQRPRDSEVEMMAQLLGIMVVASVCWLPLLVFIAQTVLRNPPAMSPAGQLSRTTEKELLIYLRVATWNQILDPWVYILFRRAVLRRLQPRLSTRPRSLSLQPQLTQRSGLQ
T1 sequence (O14804 whole entry): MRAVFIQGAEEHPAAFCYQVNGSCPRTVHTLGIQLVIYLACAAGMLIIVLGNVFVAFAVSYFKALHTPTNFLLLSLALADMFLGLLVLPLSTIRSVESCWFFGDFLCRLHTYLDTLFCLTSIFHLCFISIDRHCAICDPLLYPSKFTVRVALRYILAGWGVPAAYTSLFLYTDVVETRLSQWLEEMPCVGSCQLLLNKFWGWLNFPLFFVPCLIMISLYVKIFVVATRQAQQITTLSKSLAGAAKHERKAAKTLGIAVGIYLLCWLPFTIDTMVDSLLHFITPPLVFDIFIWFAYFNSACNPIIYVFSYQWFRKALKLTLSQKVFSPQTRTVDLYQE
T2 sequence (Q14832 23-879): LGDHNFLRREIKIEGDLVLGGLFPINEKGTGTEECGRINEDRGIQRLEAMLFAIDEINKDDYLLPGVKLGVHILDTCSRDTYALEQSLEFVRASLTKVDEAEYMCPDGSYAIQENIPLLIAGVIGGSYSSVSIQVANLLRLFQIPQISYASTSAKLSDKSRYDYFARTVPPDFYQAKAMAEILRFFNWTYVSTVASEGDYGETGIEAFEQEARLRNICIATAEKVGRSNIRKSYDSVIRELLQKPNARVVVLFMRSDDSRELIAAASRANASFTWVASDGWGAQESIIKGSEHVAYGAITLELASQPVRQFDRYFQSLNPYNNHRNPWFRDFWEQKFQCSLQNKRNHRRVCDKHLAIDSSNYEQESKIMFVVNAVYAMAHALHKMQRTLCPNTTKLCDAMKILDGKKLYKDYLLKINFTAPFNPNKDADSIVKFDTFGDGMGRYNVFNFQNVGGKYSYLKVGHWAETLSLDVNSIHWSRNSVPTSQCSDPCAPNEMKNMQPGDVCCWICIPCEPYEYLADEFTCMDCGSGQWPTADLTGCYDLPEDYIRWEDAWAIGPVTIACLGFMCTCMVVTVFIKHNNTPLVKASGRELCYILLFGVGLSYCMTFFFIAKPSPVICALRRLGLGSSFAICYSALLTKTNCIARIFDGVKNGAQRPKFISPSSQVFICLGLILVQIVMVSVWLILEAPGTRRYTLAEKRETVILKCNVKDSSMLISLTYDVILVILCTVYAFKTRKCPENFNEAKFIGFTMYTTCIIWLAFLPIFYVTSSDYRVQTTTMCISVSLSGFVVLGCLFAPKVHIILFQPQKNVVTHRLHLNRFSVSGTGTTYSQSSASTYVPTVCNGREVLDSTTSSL

| GPCRome screening signal at TAAR5 [1, 5] | GPCRome screening signal at GRM3 [2, 5] | GPCRome screening signal at S1PR5 [3, 5] | GPCRome screening signal at TBXA2R [4, 5] | SMILES | GPCRome agonism screen response ([1]; replicate values, Fig_4g) | GPCRome agonism screen response ([2]; replicate values, Fig_4g) | GPCRome agonism screen response ([3]; replicate values, Fig_4g) | GPCRome agonism screen response ([4]; replicate values, Fig_4g) |
| --- | --- | --- | --- | --- | --- | --- | --- | --- |
| 1.144 and 1.4451 and 1.369 and 1.654 | 0.4086 and 1.387 and 0.6216 and 1.325 | 0.8048 and 0.6191 and 0.7126 and 0.9361 | 1.076 and 0.505 and 0.6523 and 0.5698 | CCOc1ccccc1CCC(C)NCC1(O)CCCCC1.Cl (racemic) [Fig_5f] |  |  |  |  |
|  |  |  |  | CCOc1cccc2cc(C(C)NCC3(O)CCCCC3)oc12 (centres unmarked) [O4LE6] | 1.083 and 1.815 and 1.566 and 2.161 | 0.5635 and 0.5272 and 0.9256 and 1.931 | 0.6595 and 0.787 and 0.6694 and 0.8628 | 0.6818 and 0.496 and 0.4453 and 0.576 |
